Measurements reported in US20190142974A1, “METHODS AND COMPOSITIONS FOR ATTENUATING ANTI-VIRAL TRANSFER VECTOR IGM RESPONSES” (Selecta Biosciences, Inc., priority 2017, published 2019).

Test system: AAV
Assay: Serum AAV IgG, ELISA
Assay type: in vivo, C57BL/6 female mice
Details: Example 12, FIG. 24B
Description: Same serum samples from Example 3 were also tested for AAV IgG measured by ELISA along the same lines as IgM with the exception of goat anti-mouse IgG specific-HRP being used.

SMILES: C=CC(=O)N1CCC[C@@H](n2nc(-c3ccc(Oc4ccccc4)cc3)c3c(N)ncnc32)C1 [ibrutinib]
- animals converting to AAV IgG-positive by d22: 10/10
